Source: US11267809B2, “BAF complex modulating compounds and methods of using the same” (THE BOARD OF TRUSTEES OF THE LELAND STANFORD JUNIOR …, priority 2017, dated 2022)
Read-outs that look alike come from different tables or passages of the source.

Assays:
[1] = tested on: HCT116 (ARID1A−/−) cell line; test: Synergy viability assay, HCT116 ARID1A(-/-); assay type: cell-based, human; settings: for average combination index (CI) of TOP2 inhibitor: with VE-821, ARID1A(−/−), 5 days
Excerpt: (§1) SMARCA4, the primary target of our original screen, is present in both human BAF and PBAF complexes in cancer^12. PBAF complexes differ from BAF complexes by incorporation of specific subunits. Specifically, PBAF complexes contain ARID2 (as opposed to ARID1A/B), PHF10 (BAF45a) (as opposed to […] (BAF45d)), PBRM1, and lack the BAF-specific subunit SS18. PBAF specific subunits are also frequently mutated in cancer, specifically renal clear cell carcinomas and cholangiocarcinomas^33-36. To assess whether the lead compound is targeting BAF, PBAF complexes, or both, we constitutively knocked down ARID1A or ARID2 by lentiviral transduction of HCT116 cells and compared the BAFi/ATRi synergy to the wild-type (ARID1A+/+).
Isogenic HCT116 ARID1A(+/+) and ARID1A(−/−) cell lines were originally obtained from Horizon Discovery. MCF-7, Cal-51, A-704, and MDA-MB-436, MDA-MB-468, HCC1143, HCC1187, HCC1954, and ACHN cell lines were obtained from American Type […]. All cell lines were grown in McCoy's 5a Media supplemented with 10% FBS.
(§2) Viability assays were performed in 384-well plates. Cells were plated at 500 cells/well. Each drug was administered in 5-doses with 4 replicates per plate, and each 5×5 drug combination was administered with 8 replicates per plate, 24 hours after seeding. All error bars represent 4 or 8 technical replicates averaged over 3 independent experiments. Media containing fresh drug was replaced every 48 hours. After 5 days, cellular viability was measured using CellTitre blue, as described by the manufacturer.

HCT116 cells [2] = test: Synergy viability assay (CellTitre blue, 5 days), HCT116 ARID1A(+/+); assay type: cell-based, human; settings: for average combination index (CI) of TOP2 inhibitor: with VE-821, ARID1A(+/+); for average combination index (CI) of TOP2 inhibitor / average combination index (CI) of putative inhibitor / IC50: 5 days; for average combination index (CI) of putative inhibitor: with VE-821 (1-30 uM) and putative inhibitor (1-30 uM); for IC50: Homo sapiens, HCT-116, 120 h, read-out: VE-821 IC50 in combination with BAFi
Protocol: To assess drug synergy, the Chou-Talalay method was employed to provide a mechanism-independent method to quantify the synergism of drug interactions. This method combines elements of the Scatchard, Michaelis-menten, Hill, and Henderson-Hasslebalch equations through the law of mass-action^31,32 to generate a quantifiable assessment of synergy. Molecules were tested both independently and then in 25 different combinations in HCT116 cells for 5 days as described above. To determine a combination index (CI), median-effect equations of the two respective molecules were determined from their respective dose responses. The median-effect equation was used to calculate a median-effect dose, and (Dx)ATRi,BAFi values which correspond for the respective doses of the BAFi and ATRi compounds and correlate with a given percentage of cells affected by the individual treatments. Normalized index values (IATRi, IBAFi), and the combination index are a ratio between the treatment dose, and the Dx for a given fraction of affected cells. Combination indices less than 0.9 are considered synergistic, while values ranging from 0.9 to 1.1 are additive, and CIs above 1.1 are antagonistic.
as §2

[3] = tested on: HCT116 cells infected with shRNA lentivirus targeting ARID1A; test: Synergy viability assay, HCT116 with shARID1A knockdown; assay type: cell-based, human; settings: single agent, 5 continuous days
Excerpt: as §1, with “(ARID1A+/+). […] Further, upon knockdown of ARID1A or ARID2 (FIG. 3b), the synergistic effect observed between Baficillin1 and VE-821 was ablated upon loss of ARID1A (FIG. 3e) (CIshARID1A=1.48±0.14), but not loss of shARID2 (CIshARID2=0.42±0.04) (FIG. 3c-e).” for “(ARID1A+/+).”
as §2
Lentiviruses were produced in Lenti-X 293T cells (Clonetech) via spinfection with polyethylenimine transfection. 293T-x cells were transfected with PEI (Polysciences Inc., 24765) with lentiviral PLKO shARID1A or GIPZ shARID2 knockdown vectors, co-transfected with packaging vectors pspax2 and pMD2.G as previously described^49. PLKO shRNA construct targeting ARID1A (TRCN0000059090: shRNA-2) was obtained^50 and GIPZ Human ARID2 shRNA was purchased from Dharmacon (CloneId:V2LHS_74399). […]

[4] = tested on: HCT116 cells, ARID1A deleted; settings: HCT116 cells upon deletion of ARID1A, 5 days of treatment; read-out: IC50 of VE-821; cited from earlier work
HCT116 cells [5] = settings: 5 days of treatment, before ARID1A deletion, read-out: IC50 of VE-821; cited from earlier work

## CC(Oc1ccc(Oc2cnc3ccc(Cl)cc3n2)cc1)C(=O)O (stereo not shown) [XK469]
[1]
  average combination index (CI) of TOP2 inhibitor: 0.85±0.09
HCT116 cells [2]
  average combination index (CI) of TOP2 inhibitor: 0.75±0.05

## COc1ccc2c(C)nc(Nc3nc(C)c(C)c(=O)[nH]3)nc2c1 [Madrasin]
HCT116 cells [2]
  average combination index (CI) of putative inhibitor: 1.4±0.04

## CCc1nc(N)nc(N)c1-c1ccc(Cl)cc1 [Chloroidine, Pyrimethamine]
HCT116 cells [2]
  average combination index (CI) of putative inhibitor: 1.3±0.18

## ICRF-193
[1]
  average combination index (CI) of TOP2 inhibitor: 0.82±0.08
HCT116 cells [2]
  average combination index (CI) of TOP2 inhibitor: 1.0±0.05

## CS(=O)(=O)c1ccc(-c2cnc(N)c(C(=O)Nc3ccccc3)n2)cc1 [VE-821]
[3]
  sensitivity (cell survival) compared to wild-type HCT116: increased sensitivity
[1]; single agent, 5 continuous days
  sensitivity (cell survival) compared to wild-type HCT116: increased sensitivity
[4]
  IC50: ~1000 nM
HCT116 cells [5]
  IC50: ~10000 nM
HCT116 cells [2]; highest dose of BAFi (Baficillin1) tested in combination
  IC50: ~1000 nM
HCT116 cells [2]; lowest dose of BAFi (Baficillin1) 1.25 uM
  IC50: ~4000 nM

## O=C(/C=C/N1C[C@H]2C[C@@H]1CN2c1ccccn1)c1ccccc1O [PFI-3]
[1]; ARID1A(−/−) condition
  individual dose-response or synergy with VE-821: no measurable individual dose-response or synergy effects
HCT116 cells [2]; ARID1A(+/+) condition, as treated in FIG. 4c
  individual dose-response or synergy with VE-821: no measurable individual dose-response or synergy effects

## COc1cccc2c1C(=O)c1c(O)c3c(c(O)c1C2=O)C[C@@](O)(C(=O)CO)C[C@@H]3O[C@H]1C[C@H](N)[C@H](O)[C@H](C)O1 [Doxorubicin]
[1]
  average combination index (CI) of TOP2 inhibitor: 0.95±0.06
HCT116 cells [2]
  average combination index (CI) of TOP2 inhibitor: 0.87±0.07
